Experimental data taken from the supplement of paper PMC10307832.

Tests used:
Experiment in all cases: relative viability (nuclei count vs DMSO), 5 days (fraction); higher = more cells survive
201T = test system: 201T
Outline: (§1)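 One day after seeding in 1536-well plates, lung cancer cell lines were dosed by pin tool. Dosing was either single-drug or a fixed anchor-drug dose plus five library-drug doses (not always all listed) in √10 steps. After 5 days, nuclei were stained in one fix-and-stain step and counted on 4× images, and relative viability is the nuclei count of treated wells over that of vehicle wells, given as the median of duplicate plates.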

COR-L23 = test system: COR-L23
Outline: as §1

EPLC-272H = test system: EPLC-272H
Outline: as §1

H3255 = test system: H3255
Outline: as §1

HCC-44 = test system: HCC-44
Outline: as §1

LOU-NH91 = test system: LOU-NH91
Outline: as §1

NCI-H1563 = test system: NCI-H1563
Outline: as §1

NCI-H1650 = test system: NCI-H1650
Outline: as §1

NCI-H1734 = test system: NCI-H1734
Outline: as §1

NCI-H1793 = test system: NCI-H1793
Outline: as §1

NCI-H1993 = test system: NCI-H1993
Outline: as §1

NCI-H2023 = test system: NCI-H2023
Outline: as §1

NCI-H2085 = test system: NCI-H2085
Outline: as §1

NCI-H2170 = test system: NCI-H2170
Outline: as §1

NCI-H2347 = test system: NCI-H2347
Outline: as §1

NCI-H2405 = test system: NCI-H2405
Outline: as §1

NCI-H3122 = test system: NCI-H3122
Outline: as §1

NCI-H441 = test system: NCI-H441
Outline: as §1

NCI-H520 = test system: NCI-H520
Outline: as §1

NCI-H647 = test system: NCI-H647
Outline: as §1

PC-14 = test system: PC-14
Outline: as §1

RERF-LC-KJ = test system: RERF-LC-KJ
Outline: as §1

SW 900 = test system: SW 900
Outline: as §1

Structure (SMILES): NC(=O)Nc1cc(-c2cccc(F)c2)sc1C(=O)N[C@H]1CCCNC1 [AZD7762] + Nc1nc2[nH]cc(CCc3ccc(C(=O)N[C@@H](CCC(=O)O)C(=O)O)cc3)c2c(=O)[nH]1 [Pemetrexed] (partner 0.2 µM)
- relative viability (201T; first compound 0.01 µM): 0.34
- relative viability (201T; first compound 0.03162 µM): 0.293
- relative viability (201T; first compound 0.1 µM): 0.307
- relative viability (201T; first compound 0.3162 µM): 0.284
- relative viability (201T; first compound 1 µM): 0.296
- relative viability (COR-L23; first compound 0.01 µM): 0.191
- relative viability (COR-L23; first compound 0.03162 µM): 0.185
- relative viability (COR-L23; first compound 0.1 µM): 0.181
- relative viability (COR-L23; first compound 0.3162 µM): 0.168
- relative viability (COR-L23; first compound 1 µM): 0.131
- relative viability (EPLC-272H; first compound 0.01 µM): 0.321
- relative viability (EPLC-272H; first compound 0.03162 µM): 0.214
- relative viability (EPLC-272H; first compound 0.1 µM): 0.174
- relative viability (EPLC-272H; first compound 0.3162 µM): 0.12
- relative viability (EPLC-272H; first compound 1 µM): 0.0715
- relative viability (H3255; first compound 0.01 µM): 0.549
- relative viability (H3255; first compound 0.03162 µM): 0.61
- relative viability (H3255; first compound 0.1 µM): 0.573
- relative viability (H3255; first compound 0.3162 µM): 0.531
- relative viability (H3255; first compound 1 µM): 0.477
- relative viability (HCC-44; first compound 0.01 µM): 0.608
- relative viability (HCC-44; first compound 0.03162 µM): 0.548
- relative viability (HCC-44; first compound 0.1 µM): 0.534
- relative viability (HCC-44; first compound 0.3162 µM): 0.451
- relative viability (HCC-44; first compound 1 µM): 0.358
- relative viability (LOU-NH91; first compound 0.01 µM): 0.437
- relative viability (LOU-NH91; first compound 0.03162 µM): 0.306
- relative viability (LOU-NH91; first compound 0.1 µM): 0.335
- relative viability (LOU-NH91; first compound 0.3162 µM): 0.359
- relative viability (LOU-NH91; first compound 1 µM): 0.349
- relative viability (NCI-H1563; first compound 0.01 µM): 0.853
- relative viability (NCI-H1563; first compound 0.03162 µM): 0.997
- relative viability (NCI-H1563; first compound 0.1 µM): 0.84
- relative viability (NCI-H1563; first compound 0.3162 µM): 0.693
- relative viability (NCI-H1563; first compound 1 µM): 0.765
- relative viability (NCI-H1650; first compound 0.01 µM): 0.333
- relative viability (NCI-H1650; first compound 0.03162 µM): 0.331
- relative viability (NCI-H1650; first compound 0.1 µM): 0.296
- relative viability (NCI-H1650; first compound 0.3162 µM): 0.252
- relative viability (NCI-H1650; first compound 1 µM): 0.19
- relative viability (NCI-H1734; first compound 0.01 µM): 0.398
- relative viability (NCI-H1734; first compound 0.03162 µM): 0.353
- relative viability (NCI-H1734; first compound 0.1 µM): 0.334
- relative viability (NCI-H1734; first compound 0.3162 µM): 0.303
- relative viability (NCI-H1734; first compound 1 µM): 0.28
- relative viability (NCI-H1793; first compound 0.01 µM): 0.983
- relative viability (NCI-H1793; first compound 0.03162 µM): 0.956
- relative viability (NCI-H1793; first compound 0.1 µM): 0.954
- relative viability (NCI-H1793; first compound 0.3162 µM): 0.811
- relative viability (NCI-H1793; first compound 1 µM): 0.562
- relative viability (NCI-H1993; first compound 0.01 µM): 0.559
- relative viability (NCI-H1993; first compound 0.03162 µM): 0.487
- relative viability (NCI-H1993; first compound 0.1 µM): 0.602
- relative viability (NCI-H1993; first compound 0.3162 µM): 0.586
- relative viability (NCI-H1993; first compound 1 µM): 0.578
- relative viability (NCI-H2023; first compound 0.01 µM): 0.211
- relative viability (NCI-H2023; first compound 0.03162 µM): 0.156
- relative viability (NCI-H2023; first compound 0.1 µM): 0.112
- relative viability (NCI-H2023; first compound 0.3162 µM): 0.124
- relative viability (NCI-H2023; first compound 1 µM): 0.0879
- relative viability (NCI-H2085; first compound 0.01 µM): 0.932
- relative viability (NCI-H2085; first compound 0.03162 µM): 0.918
- relative viability (NCI-H2085; first compound 0.1 µM): 1
- relative viability (NCI-H2085; first compound 0.3162 µM): 0.795
- relative viability (NCI-H2085; first compound 1 µM): 0.673
- relative viability (NCI-H2170; first compound 0.01 µM): 0.272
- relative viability (NCI-H2170; first compound 0.03162 µM): 0.264
- relative viability (NCI-H2170; first compound 0.1 µM): 0.285
- relative viability (NCI-H2170; first compound 0.3162 µM): 0.236
- relative viability (NCI-H2170; first compound 1 µM): 0.21
- relative viability (NCI-H2347; first compound 0.01 µM): 0.448
- relative viability (NCI-H2347; first compound 0.03162 µM): 0.395
- relative viability (NCI-H2347; first compound 0.1 µM): 0.455
- relative viability (NCI-H2347; first compound 0.3162 µM): 0.403
- relative viability (NCI-H2347; first compound 1 µM): 0.329
- relative viability (NCI-H2405; first compound 0.01 µM): 0.998
- relative viability (NCI-H2405; first compound 0.03162 µM): 1.25
- relative viability (NCI-H2405; first compound 0.1 µM): 0.927
- relative viability (NCI-H2405; first compound 0.3162 µM): 1
- relative viability (NCI-H2405; first compound 1 µM): 0.466
- relative viability (NCI-H3122; first compound 0.01 µM): 0.19
- relative viability (NCI-H3122; first compound 0.03162 µM): 0.188
- relative viability (NCI-H3122; first compound 0.1 µM): 0.167
- relative viability (NCI-H3122; first compound 0.3162 µM): 0.16
- relative viability (NCI-H3122; first compound 1 µM): 0.139
- relative viability (NCI-H441; first compound 0.01 µM): 0.267
- relative viability (NCI-H441; first compound 0.03162 µM): 0.288
- relative viability (NCI-H441; first compound 0.1 µM): 0.294
- relative viability (NCI-H441; first compound 0.3162 µM): 0.275
- relative viability (NCI-H441; first compound 1 µM): 0.271
- relative viability (NCI-H520; first compound 0.01 µM): 0.761
- relative viability (NCI-H520; first compound 0.03162 µM): 0.458
- relative viability (NCI-H520; first compound 0.1 µM): 0.421
- relative viability (NCI-H520; first compound 0.3162 µM): 0.175
- relative viability (NCI-H520; first compound 1 µM): 0.17
- relative viability (NCI-H647; first compound 0.01 µM): 0.146
- relative viability (NCI-H647; first compound 0.03162 µM): 0.128
- relative viability (NCI-H647; first compound 0.1 µM): 0.108
- relative viability (NCI-H647; first compound 0.3162 µM): 0.0887
- relative viability (NCI-H647; first compound 1 µM): 0.0641
- relative viability (PC-14; first compound 0.01 µM): 0.133
- relative viability (PC-14; first compound 0.03162 µM): 0.0943
- relative viability (PC-14; first compound 0.1 µM): 0.0891
- relative viability (PC-14; first compound 0.3162 µM): 0.0706
- relative viability (PC-14; first compound 1 µM): 0.0517
- relative viability (RERF-LC-KJ; first compound 0.01 µM): 0.48
- relative viability (RERF-LC-KJ; first compound 0.03162 µM): 0.461
- relative viability (RERF-LC-KJ; first compound 0.1 µM): 0.441
- relative viability (RERF-LC-KJ; first compound 0.3162 µM): 0.399
- relative viability (RERF-LC-KJ; first compound 1 µM): 0.392
- relative viability (SW 900; first compound 0.01 µM): 0.533
- relative viability (SW 900; first compound 0.03162 µM): 0.459
- relative viability (SW 900; first compound 0.1 µM): 0.452
- relative viability (SW 900; first compound 0.3162 µM): 0.475
- relative viability (SW 900; first compound 1 µM): 0.374
